From BindingDB's records for doi:10.1016/0014-2999(86)90335-3 (Janssen Pharmaceutica, 1986) come the findings set out here.

Values joined by “and” are separate entries in the source; they are usually repeats but may differ in a detail not shown here. Equal values may be shown once.

As usually defined, the Ki is the equilibrium dissociation constant of an inhibitor or competing ligand from its target. Higher therefore signals a looser hold on the target.

The target in test [1] is T1, Alpha-1A adrenergic receptor (Rattus norvegicus, UniProt P43140).
T1 sequence (P43140 whole entry): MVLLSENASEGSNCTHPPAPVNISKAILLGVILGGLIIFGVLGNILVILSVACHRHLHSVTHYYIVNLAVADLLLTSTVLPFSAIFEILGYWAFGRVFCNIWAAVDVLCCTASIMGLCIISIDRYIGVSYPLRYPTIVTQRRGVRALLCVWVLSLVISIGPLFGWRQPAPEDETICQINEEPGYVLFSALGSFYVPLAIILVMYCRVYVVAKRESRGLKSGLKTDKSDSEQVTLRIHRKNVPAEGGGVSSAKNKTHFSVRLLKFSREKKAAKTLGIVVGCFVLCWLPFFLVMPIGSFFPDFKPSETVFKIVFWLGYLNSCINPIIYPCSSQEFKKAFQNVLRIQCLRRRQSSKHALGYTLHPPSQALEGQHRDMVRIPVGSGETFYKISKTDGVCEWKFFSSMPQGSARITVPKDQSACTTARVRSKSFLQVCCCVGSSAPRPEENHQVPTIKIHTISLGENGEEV

In test [2] the target is T2, Alpha-2C adrenergic receptor (Rattus norvegicus, UniProt P22086).
T2 sequence (P22086 whole entry): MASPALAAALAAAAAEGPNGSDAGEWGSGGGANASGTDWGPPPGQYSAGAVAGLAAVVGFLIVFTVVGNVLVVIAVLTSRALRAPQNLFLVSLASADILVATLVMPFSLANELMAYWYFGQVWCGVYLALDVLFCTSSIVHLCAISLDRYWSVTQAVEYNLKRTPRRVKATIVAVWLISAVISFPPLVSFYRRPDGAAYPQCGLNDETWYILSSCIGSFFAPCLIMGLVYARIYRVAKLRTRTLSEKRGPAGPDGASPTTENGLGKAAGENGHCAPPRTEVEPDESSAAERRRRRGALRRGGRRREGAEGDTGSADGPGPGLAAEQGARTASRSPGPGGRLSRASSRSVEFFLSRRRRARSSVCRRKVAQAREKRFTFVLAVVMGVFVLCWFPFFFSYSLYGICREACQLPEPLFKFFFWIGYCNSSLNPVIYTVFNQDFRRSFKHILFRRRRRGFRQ

As for `c1ccc2c(c1)OCC(C1=NCCN1)O2` (configuration not stated), the Ki in test [1] was 1000 nM. Regarding `Cc1nc2ccccn2c(=O)c1CCN1CCC(C(=O)c2ccc(F)cc2)CC1`, the Ki in test [2] is 7.9 nM and 4.5 nM and 18 nM and 20 nM; in test [1], 20 nM. Consider `O=C(c1ccc(F)cc1)C1CCN(CCn2c(=S)[nH]c3ccccc3c2=O)CC1`, for which the Ki in test [2] is 290 nM and 200 nM and 280 nM and 71 nM. Compound `N#Cc1ccc2c(c1)N(CCCN1CCC(O)CC1)c1ccccc1S2` registered a Ki in test [1] of 4.1 nM. In other words, the single-digit nanomolar range.

In the case of `CN1C[C@H](C(=O)N[C@]2(C)O[C@@]3(O)[C@@H]4CCCN4C(=O)[C@H](Cc4ccccc4)N3C2=O)C=C2c3cccc4[nH]cc(c34)C[C@H]21` [12'-hydroxy-2'-methyl-5'alpha-(phenylmethyl)ergotaman-3',6',18-trione], the Ki in test [2] is 12 nM and 4 nM and 3.5 nM and 6.3 nM; in test [1] it was 25 nM.

`Cc1ccc2nc(C)c(CCN3CCC(C(=O)c4ccc(F)cc4)CC3)c(=O)n2c1` [CAS_72005]: the inhibition constant (Ki) in test [2] was 10 nM and 2.5 nM and 2.8 nM; in test [1], 7.9 nM. `Cc1nc2n(c(=O)c1CCN1CCC(C(=O)c3ccc(F)cc3)CC1)CCS2` [CAS_86487-64-1] had a Ki in test [1] of 32 nM. Consider `O=C(c1ccc(F)cc1)C1CCN(CCCCn2c(=O)[nH]c3ccccc3c2=O)CC1` [CAS_87051-46-5], for which the Ki in test [2] is 500 nM and 400 nM and 66 nM and 60 nM; in test [1], 0.45 nM. Consider `CN1CCN(CC/C=C2/c3ccccc3Sc3ccc(S(=O)(=O)N(C)C)cc32)CC1` [MLS000028463], for which the inhibition constant Ki is 1200 nM and 1400 nM in test [2]; 25 nM in test [1].

In test [1], `CS(=O)(=O)c1ccc2c(c1)N(CCCN1CCC(C(N)=O)CC1)c1ccccc1S2` [NSC_26388] displayed a Ki of 2.5 nM. With `c1ccc(CC2=NCCN2)cc1` [Tolazoline], the Ki was 450 nM and 120 nM and 890 nM and 500 nM in test [2]; 3200 nM in test [1].
